Data as given in patent publication US20240299492A1, “COMBINATION THERAPIES WITH SIRP ALPHA-BASED CHIMERIC PROTEINS” (Shattuck Labs, Inc., priority 2021, published 2024).
Entries after “also recorded” stand apart in the source; their conditions may differ.

Tests used:
calreticulin (CRT) [1] = assay: Surface expression of calreticulin in Kasumi-3 cells (flow cytometry), Example 17; assay type: cell-based, human; settings: 1 μM, overnight; FIG. 11D
Description: (§1) In another experiment, the Kasumi-3 human acute myelocytic leukemia (AML) cells were incubated overnight in the presence of vehicle only control, 1 μM pevonedistat (MLN4924) or […]. The following day, the Kasumi-3 cells were analyzed by flow cytometry for surface expression of CD47 or calreticulin (CRT).

CD47 [2] = assay: Surface expression of CD47 in K652 cells (flow cytometry); assay type: cell-based, human; settings: 1 μM, overnight; FIG. 11A
Description: (§2) Briefly, the K652 human chronic myelogenous leukemia cells were incubated overnight in the presence of vehicle only control, 1 μM azacitidine or 1 μM pevonedistat. The following day, the K652 cells were analyzed by flow cytometry for surface expression of CD47 or calreticulin (CRT).

A20 lymphoma cells = assay: In vivo anti-tumor efficacy, A20 lymphoma cell allograft mouse model; set-up: species or system BALB/C mice; settings: day 12; 1 mg/kg azacitidine (days 0-4), 4 mg/kg pevonedistat (MLN4924) (days 0-3), 200 μg SIRPα-Fc-CD40L (mSIRPα-Fc-CD40L; days 0, 3, 6), intraperitoneal; FIG. 13C
Description: The efficacy of the SIRPα-Fc-CD40L chimeric protein was evaluated in combination with an immune checkpoint inhibitor. Towards that, the ability of an anti-PD-L1 antibody and chimeric proteins to target and reduce tumor volume in vivo was determined. Briefly, BALB/C mice were inoculated with 1×10^6 A20 lymphoma cells. When tumor volumes were approximately 75 to 80 mm^3 (day 0), the mice were randomly distributed in the following treatment groups: (1) vehicle only control, (2) 200 μg of the mouse SIRPα-Fc-CD40L chimeric protein alone, (3) 100 μg an anti-PD-L1 antibody (clone 10F.9G2), and (4) a combination 200 μg of the SIRPα-Fc-CD40L chimeric protein and 100 μg the anti-PD-L1 antibody. […] Tumors were measured with electronic calipers on day 12 and plotted using the GraphPad Prism software. […]
The efficacy of the SIRPα-Fc-CD40L chimeric protein was evaluated in combination with an antimetabolite/DNA synthesis inhibitor. Towards that, the ability of cytarabine and the chimeric protein to target and reduce tumor volume in vivo was determined. […] Tumors were measured with electronic calipers on day 12 and plotted using the GraphPad Prism software. […]
The efficacy of the SIRPα-Fc-CD40L chimeric protein was evaluated in combination with a hypomethylating agent/an epigenetic regulator and/or a protein neddylation inhibitor. […]

CD47 [3] = assay: Surface expression of CD47 in Kasumi-3 cells (flow cytometry); assay type: cell-based, human; settings: 1 μM, overnight; FIG. 11B
Description: as §1

calreticulin (CRT) [4] = assay: Surface expression of calreticulin in K652 cells (flow cytometry); assay type: cell-based, human; settings: 1 μM, overnight; FIG. 11C
Description: as §2

calreticulin (CRT) [5] = assay: Surface expression of calreticulin in Kasumi-1 cells (flow cytometry); assay type: cell-based, human; settings: 15 μM or 50 μM APR-246, overnight; FIG. 12B
Description: (§3) Briefly, the Kasumi-1 human acute myelocytic leukemia (AML) cells were incubated overnight in the presence of vehicle only control, 15 μM APR-246, or 50 μM APR-246. The following day, the Kasumi-1 cells were analyzed by flow cytometry for surface expression of p53 and calreticulin (CRT).

p53 = assay: Surface expression of p53 in Kasumi-1 cells (flow cytometry); assay type: cell-based, human; settings: 15 μM or 50 μM APR-246, overnight; FIG. 12A
Description: as §3

calreticulin (CRT) [6] = assay: Surface expression of calreticulin in Kasumi-3 cells (flow cytometry), Example 19; assay type: cell-based, human; settings: increasing amounts, overnight; FIG. 14B
Description: (§4) The surface expression of apoptosis marker […] or the […] protein calreticulin (CRT) was studied. Briefly, the Kasumi-3 cells were incubated overnight in the presence of vehicle only control, increasing amounts of azacitidine or venetoclax, or a combination of azacitidine and venetoclax. The following day, the cells were analyzed by flow cytometry for surface expression of annexin or calreticulin (CRT). […] In addition, except for very high concentrations of azacitidine and venetoclax (100 μM each), the apoptosis induced by azacitidine and venetoclax was not additive compared to corresponding single treatments (FIG. 14A). […] In addition, except for very high concentrations of azacitidine and venetoclax (100 μM each), the apoptosis induced by azacitidine and venetoclax was not additive compared to corresponding single treatments (FIG. 14B).

Kasumi-3 AML cells = assay: Phagocytosis of Kasumi-3 AML cells by human macrophages (flow cytometry): azacitidine and/or venetoclax and/or SIRPα-Fc-CD40L; assay type: cell-based; settings: 50 μg/ml SIRPα-Fc-CD40L (p<0.05), 10 μM azacitidine (p<0.0001), 1 μM venetoclax (p<0.05); each combination p<0.0001; 4 hours; FIG. 14C
Description: Briefly, the Kasumi-3 AML cells were labeled with a green fluorescent tracker and co-cultured with human macrophages and treated with (1) vehicle alone control, (2) 50 μg/ml of the SIRPα-Fc-CD40L chimeric protein, (3) 10 μM azacitidine, (4) 50 μg/ml of the SIRPα-Fc-CD40L chimeric protein+10 μM azacitidine, (5) 1 μM venetoclax, (6) 50 μg/ml of the SIRPα-Fc-CD40L chimeric protein+1 μM venetoclax, or (7) 50 μg/ml of the SIRPα-Fc-CD40L chimeric protein+1 μM venetoclax+10 μM azacitidine. The cells were incubated at 37° C. in the presence of 5% CO2 for 4 hours. After this incubation, the cells were harvested and treated with an anti-CD11b antibody (a macrophage marker) and were analyzed using flow cytometry. Positive phagocytosis was determined by the overlap in signals of tumor (the green fluorescent tracker) and macrophage (anti-CD11b antibody staining). A phagocytosis index was calculated by setting the maximum phagocytosis value to 1, and then normalizing all other replicates accordingly. The phagocytosis index was plotted for the indicated treatments.

[7] = tested on: Kasumi-3 human acute myelocytic leukemia (AML) cells; assay: Phagocytosis of Kasumi-3 cells by human macrophages (flow cytometry): azacitidine and/or SIRPα-Fc-CD40L; assay type: cell-based; settings: 0.1 pM azacitidine overnight and/or SIRPα-Fc-CD40L for 4 hours; combination p<0.0001 vs control; FIG. 2B
Description: (§5) In another experiment, the Kasumi-3 human acute myelocytic leukemia (AML) cells were labeled with a green fluorescent tracker and treated with vehicle alone control or 0.1 pM azacitidine overnight. The following day, the tumor cells were washed in PBS and then co-cultured with human macrophages with or without the SIRPα-Fc-CD40L chimeric protein for 4 hours at 37° C. in the presence of 5% CO2. After this incubation, the cells were harvested and treated with an anti-CD11b antibody (a macrophage marker) and were analyzed using flow cytometry. Positive phagocytosis was determined by the overlap in signals of tumor (the green fluorescent tracker) and macrophage (anti-CD11b antibody staining). A phagocytosis index was calculated by setting the maximum phagocytosis value to 1, and then normalizing all other replicates accordingly. The phagocytosis index was plotted for the indicated treatments.

[8] = tested on: K652 human chronic myelogenous leukemia (CML) cells; assay: Phagocytosis of K652 cells by human macrophages (flow cytometry): azacitidine and/or SIRPα-Fc-CD40L; assay type: cell-based; settings: 0.1 μM azacitidine overnight and/or SIRPα-Fc-CD40L for 4 hours; combination p<0.001 vs control; FIG. 2A
Description: as §5, with “Briefly,” for “In another experiment,”, “K652” for “Kasumi-3”, “chronic myelogenous” for “acute myelocytic”, “(CML)” for “(AML)”, “μM” for “pM”

annexin V = assay: Surface expression of annexin V in Kasumi-3 cells (flow cytometry); assay type: cell-based, human; settings: increasing amounts, overnight; FIG. 14A
Description: as §4

SMILES	surface expression of calreticulin, a pro-phagocytic marker, compared to the vehicle only-treated Kasumi-3 cells (calreticulin (CRT) [1])	surface expression of CD47 compared to the vehicle only-treated K652 cells (CD47 [2])	tumor size (A20 lymphoma cells)	surface expression of CD47 compared to the vehicle only-treated Kasumi-3 cells (CD47 [3])	surface expression of calreticulin, a pro-phagocytic marker, compared to the vehicle only-treated K652 cells (calreticulin (CRT) [4])	expression of calreticulin compared to the vehicle only-treated Kasumi-1 cells (calreticulin (CRT) [5])	expression of p53 compared to the vehicle only-treated Kasumi-1 cells (p53)	expression of calreticulin compared to the vehicle only-treated Kasumi-3 cells (calreticulin (CRT) [6])	level of phagocytosis (phagocytosis index) compared to the vehicle only-treated Kasumi-3 cells (Kasumi-3 AML cells)	level of phagocytosis (phagocytosis index) compared to the control Kasumi-3 cells [7]	level of phagocytosis (phagocytosis index) compared to the control K652 cells [8]	expression of annexin V (apoptosis marker) compared to the vehicle only-treated Kasumi-3 cells (annexin V)
NS(=O)(=O)OC[C@@H]1C[C@@H](n2ccc3c(N[C@H]4CCc5ccccc54)ncnc32)C[C@@H]1O [pevonedistat (MLN4924), pevonedistat]	induced the expression	induced the expression	reduction in tumor size	induced the expression	induced the expression							
COCC1(CO)C(=O)C2CCN1CC2 (stereo not drawn) [APR-246]						induced the expression	dose-dependent induction					
Nc1ncn([C@@H]2O[C@H](CO)[C@@H](O)[C@H]2O)c(=O)n1 [azacitidine]		induced the expression	reduction in tumor size		induced the expression			induced the expression of calreticulin in Kasumi-3 cells in a dose-dependent manner; also recorded: increased the expression	increased level of phagocytosis	slight increase in the level of phagocytosis	increased level of phagocytosis	induced the expression of annexin V in Kasumi-3 cells in a dose-dependent manner; also recorded: increased the expression
